Measurements as given in US8039013B2, “Synergistic fungidical active substance combinations” (Bayer CropScience AG, priority 2004, dated 2011).

Test system: Pyrenophora teres
Experiment: Pyrenophora teres test (barley)/shoot treatment, field experiment
Assay type: in vivo, Pyrenophora teres on barley
Conditions: shoot treatment after flag leaf emergence, 62.5 g/ha, scoring long-term effect, 41 days post-application
Experimental: Pyrenophora teres Test (Barley)/shoot Treatment, Field Experiment
To prepare a suitable preparation of active substance, a “commercially available” formulation of active substance or active substance combination is diluted with water to give the desired concentration.
The active substance preparation is applied at the application rate stated, after the flag leaf has emerged.
The evaluation is carried out at the point in time at which the disease symptoms are complete and readily recognizable. In this context, 0% means an efficacy which corresponds to that of the control, while an efficacy of 100% means that no disease is observed.
The expected efficacy in % of the untreated control was calculated using the equation
In this equation, x and y mean the efficacy—expressed in % of the untreated control—which the two products achieve when applied separately. If the actual efficacy of the active substance combination exceeds the value for the expected efficacy (E) as calculated by the above formula, then the effect is superadditive, i.e. a synergistic effect exists.

Cn1cc(C(=O)Nc2ccc(F)cc2-c2ccc(Cl)c(Cl)c2)c(C(F)F)n1 [III-23, N-(3′,4′-dichloro-5-fluoro-1,1′-biphenyl-2-yl)-3-(difluoromethyl)-1-methyl-1H-pyrazole-4-carboxamide] was tested, and the “Efficacy in % found” value was 40%.
